Drawing on publication PMC9749938, “Alkyltriphenylphosphonium turns naphthoquinoneimidazoles into potent membrane depolarizers against mycobacteria” (RSC Medicinal Chemistry, 2022), this text covers EC50 for three compounds.

The assay concerns inverted membrane vesicles of M. smegmatis mc^24517 overexpressing NDH2 (TB-ndh). The assay is described as follows: NADH oxidation in inverted membrane vesicles, TB-ndh. The class given is biochemical. Conditions: read-out: EC50 of activation of NADH oxidation, TB-ndh IMV.
Consider `CCCCCCCCn1c2c([n+](CCCC)c1C)C(=O)c1ccccc1C2=O.[Br-]` [Compound 45, reference compound], for which the EC50 was determined as 0.2 µM.
As for `CCCCn1c2c([n+](C3CCC4(CCCCC4)CC3)c1C)C(=O)c1ccccc1C2=O.[Br-]` [Compound 44, reference compound], the figure is 3.74 µM.
In the case of `Cc1nc2c(n1CCCCCCCCCCC[P+](c1ccccc1)(c1ccccc1)c1ccccc1)C(=O)c1ccccc1C2=O.[I-]` [Compound 7], the EC50 worked out at 1.4 µM.

Broadly, the EC50 is the concentration at which the effect is half-maximal.
